Assay results taken from patent publication US9371519B2, “Complex type sugar chain hydrolase” (National Institute of Advanced Industrial Science and …, priority 2011, dated 2016).

Assays:
[1] = target: T1, Ogataea minuta endo-β-N-acetylglucosaminidase Endo-Om, wild type (recombinant, purified), SEQ ID NO: 1 (Ogataea minuta, UniProt R4WHQ8); experiment: Km and Vmax for NGA2-Asn-Fmoc hydrolysis, purified Endo-Om (HPLC); format: biochemical
T1 sequence (R4WHQ8 1-772): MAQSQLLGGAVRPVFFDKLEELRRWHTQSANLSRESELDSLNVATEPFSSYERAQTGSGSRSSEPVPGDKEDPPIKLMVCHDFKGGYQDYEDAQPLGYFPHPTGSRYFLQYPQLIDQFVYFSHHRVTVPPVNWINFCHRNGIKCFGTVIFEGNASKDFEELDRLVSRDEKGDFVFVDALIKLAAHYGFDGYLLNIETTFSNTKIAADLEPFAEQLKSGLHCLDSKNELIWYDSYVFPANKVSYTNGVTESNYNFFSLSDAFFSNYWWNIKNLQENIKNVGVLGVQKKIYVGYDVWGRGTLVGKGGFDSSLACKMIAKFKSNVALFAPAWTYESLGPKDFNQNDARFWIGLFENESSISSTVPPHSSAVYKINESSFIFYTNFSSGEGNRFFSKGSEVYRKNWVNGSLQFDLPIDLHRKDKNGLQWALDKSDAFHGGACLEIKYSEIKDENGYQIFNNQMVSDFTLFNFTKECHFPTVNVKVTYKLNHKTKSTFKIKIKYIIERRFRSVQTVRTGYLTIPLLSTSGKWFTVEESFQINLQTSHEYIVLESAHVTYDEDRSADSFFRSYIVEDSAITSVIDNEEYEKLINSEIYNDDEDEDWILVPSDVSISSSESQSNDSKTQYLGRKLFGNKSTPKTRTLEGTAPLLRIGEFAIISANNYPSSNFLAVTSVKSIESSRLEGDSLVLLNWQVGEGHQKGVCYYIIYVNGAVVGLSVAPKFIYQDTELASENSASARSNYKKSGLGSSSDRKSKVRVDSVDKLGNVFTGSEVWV
Description: (§1) The enzyme activity was measured as follows. A reaction solution (total volume: 10 μl) containing 100 mM of a sodium acetate buffer (pH 5.3) at the final concentration, 0.5 M NaCl, 10 μM of a Fmoc-labeled biantennary complex type sugar chain (NGA2-Asn-Fmoc), and an Endo-Om crude enzyme solution was incubated at 50° C. for 1 hour, and heated at 95° C. for 5 minutes, thereby stopping the enzyme reaction. The reaction solution was subjected to HPLC, and the enzymatic activity was calculated from the peak area ratio between the NGA2-Asn-Fmoc as the substrate and its hydrolysate. The column was Asahipak NH2P-50 4E (4.6.250 mm, Shodex), and the solvents were acetonitrile (solvent A) and 200 mM of TEAA (pH 7.0, GLEN RESEARCH: solvent B). Isocratic elution was carried out at a flow rate of 1.0 ml/min, and the solvent B: 43%, and detection was carried out using a fluorescence detector (excitation wavelength 265 nm, and fluorescence wavelength 315 nm). The activity hydrolyzing 1 vol of NGA2-Asn-Fmoc in 1 minute under the above-described reaction conditions was defined as 1 Unit of the enzymatic activity of Endo-Om.
(§2) The properties of Endo-Om were studied using a purified enzyme solution. According to the method described in Example 4, the Endo-Om crude enzyme solution prepared from 100 ml culture was substituted with an equilibration buffer (20 mM sodium phosphate buffer (pH 7.4), 0.5 M NaCl, 0.5 mM PMSF, 50 mM imidazole) by dialysis. […] According to the method described in Example 4, the activity of the Endo-Om purified enzyme solution when the substrate concentration was 1 mM was measured, and the specific activity was calculated. In addition, activity measurement was carried out using NGA2-Asn-Fmoc at different concentrations as the substrates, and Km and Vmax were calculated. For comparison, the specific activity, Km, and Vmax of the commercially available Endo-M were calculated by the same method. […]

[2] = target: T2, Mucor hiemalis endo-β-N-acetylglucosaminidase Endo-M (commercially available) (Mucor hiemalis, UniProt Q9C1S6); experiment: Km and Vmax for NGA2-Asn-Fmoc hydrolysis, commercially available Endo-M (HPLC); format: biochemical; settings: sodium acetate pH 6.0, 0.5 M NaCl, 50° C.
T2 sequence (Q9C1S6 1-744): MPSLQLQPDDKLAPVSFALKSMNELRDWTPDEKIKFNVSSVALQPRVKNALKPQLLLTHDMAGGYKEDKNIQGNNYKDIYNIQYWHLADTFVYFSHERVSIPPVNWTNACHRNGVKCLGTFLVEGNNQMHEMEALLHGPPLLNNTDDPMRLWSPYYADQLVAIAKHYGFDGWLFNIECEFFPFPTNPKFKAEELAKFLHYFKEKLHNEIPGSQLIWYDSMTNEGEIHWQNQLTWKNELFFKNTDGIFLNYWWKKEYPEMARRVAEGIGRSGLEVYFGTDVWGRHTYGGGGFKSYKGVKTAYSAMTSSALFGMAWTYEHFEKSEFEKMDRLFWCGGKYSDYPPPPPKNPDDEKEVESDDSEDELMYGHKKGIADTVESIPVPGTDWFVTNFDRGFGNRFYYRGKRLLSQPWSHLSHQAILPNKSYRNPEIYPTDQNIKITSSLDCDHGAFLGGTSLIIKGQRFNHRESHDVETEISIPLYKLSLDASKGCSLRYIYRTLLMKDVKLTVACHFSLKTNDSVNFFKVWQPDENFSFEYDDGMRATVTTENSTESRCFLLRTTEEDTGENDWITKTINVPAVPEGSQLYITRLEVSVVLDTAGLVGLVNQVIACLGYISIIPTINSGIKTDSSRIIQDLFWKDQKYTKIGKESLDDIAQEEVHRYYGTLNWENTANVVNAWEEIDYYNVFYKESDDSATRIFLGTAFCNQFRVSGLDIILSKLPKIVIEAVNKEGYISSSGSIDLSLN
Description: as §1, with “The column was Asahipak NH2P-50 4E (4.6.250 mm, Shodex), and the solvents were acetonitrile (solvent A) and 200 mM of TEAA (pH 7.0, GLEN RESEARCH: solvent B).” left out, “The activity hydrolyzing 1 vol of NGA2-Asn-Fmoc in 1 minute under the above-described reaction conditions was defined as 1 Unit of the enzymatic activity of Endo-Om.” left out
as §2, with “solution.” for “solution. According to the method described in Example 4, the Endo-Om crude enzyme solution prepared from 100 ml culture was substituted with an equilibration buffer (20 mM sodium phosphate buffer (pH 7.4), 0.5 M NaCl, 0.5 mM PMSF, 50 mM imidazole) by dialysis.”

Km ([1]; Endo-Om, sodium acetate pH 5.3, 0.5 M NaCl, 50° C., NGA2-Asn-Fmoc at different concentrations): 5.54 mM
Vmax ([1]; Endo-Om, sodium acetate pH 5.3, 0.5 M NaCl, 50° C., unit as printed in b33 and b95): 3.88 µmol/min/mg
Vmax of Endo-Om relative to Vmax of Endo-M ([1]; ratio Endo-Om / Endo-M): 55 times
Vmax [2]: 0.070 µmol/min/mg
Structure (SMILES): CC(=O)N[C@@H]1[C@@H](O)[C@H](O[C@@H]2O[C@H](CO)[C@@H](O[C@@H]3O[C@H](CO[C@H]4O[C@H](CO)[C@@H](O)[C@H](O)[C@@H]4O[C@@H]4O[C@H](CO)[C@@H](O)[C@H](O)[C@H]4NC(C)=O)[C@@H](O)[C@H](O[C@H]4O[C@H](CO)[C@@H](O)[C@H](O)[C@@H]4O[C@@H]4O[C@H](CO)[C@@H](O)[C@H](O)[C@H]4NC(C)=O)[C@@H]3O)[C@H](O)[C@H]2NC(C)=O)[C@@H](CO)O[C@H]1NC(=O)C[C@H](NC(=O)OCC1c2ccccc2-c2ccccc21)C(=O)O [NGA2-Asn-Fmoc]
